Literature values, collected in publication PMC9851200, “Multiparameter phenotypic screening for endogenous TFEB and TFE3 translocation identifies novel chemical series modulating lysosome function” (Autophagy, 2022).

Tests used:
Parameters in all cases: method as in original PKIS2 published data
[1] = biological target: kinases (KINOMEscan panel) (Homo sapiens, UniProt P21127); conditions: CDK11B; Published KINOMEscan; ref original PKIS2 published data; cited from earlier work
[2] = biological target: T1, kinases (KINOMEscan panel) (Homo sapiens, UniProt Q99759); conditions: MAP3K3; Published KINOMEscan; ref original PKIS2 published data; cited from earlier work
T1 sequence (Q99759 1-626): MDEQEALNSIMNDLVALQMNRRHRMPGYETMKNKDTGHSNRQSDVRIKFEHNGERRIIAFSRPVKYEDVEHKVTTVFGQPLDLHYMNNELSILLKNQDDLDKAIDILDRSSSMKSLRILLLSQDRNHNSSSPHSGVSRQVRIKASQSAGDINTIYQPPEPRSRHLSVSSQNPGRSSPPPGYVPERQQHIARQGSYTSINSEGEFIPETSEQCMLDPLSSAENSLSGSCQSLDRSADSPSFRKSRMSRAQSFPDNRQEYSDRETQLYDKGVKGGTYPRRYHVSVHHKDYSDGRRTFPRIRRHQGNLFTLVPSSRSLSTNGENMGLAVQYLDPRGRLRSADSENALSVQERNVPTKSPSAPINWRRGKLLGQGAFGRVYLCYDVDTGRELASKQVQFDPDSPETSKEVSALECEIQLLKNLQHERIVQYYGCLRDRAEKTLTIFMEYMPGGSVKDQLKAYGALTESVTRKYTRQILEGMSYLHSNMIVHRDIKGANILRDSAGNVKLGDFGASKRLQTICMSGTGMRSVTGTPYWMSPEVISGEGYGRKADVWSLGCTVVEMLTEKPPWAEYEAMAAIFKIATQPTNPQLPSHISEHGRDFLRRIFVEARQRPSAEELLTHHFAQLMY

[3] = biological target: kinases (KINOMEscan panel) (Homo sapiens, UniProt Q9P286); conditions: kinase PAK5; Published KINOMEscan; ref original PKIS2 published data; cited from earlier work
[4] = biological target: kinases (KINOMEscan panel) (Homo sapiens, UniProt Q15303); conditions: kinase ERBB4; Published KINOMEscan; ref original PKIS2 published data; cited from earlier work
[5] = biological target: kinases (KINOMEscan panel) (Homo sapiens, UniProt P42336); conditions: kinase PIK3CA; Published KINOMEscan; ref original PKIS2 published data; cited from earlier work
Sequence of kinases (KINOMEscan panel) (Homo sapiens, UniProt P42336) (P42336 whole entry): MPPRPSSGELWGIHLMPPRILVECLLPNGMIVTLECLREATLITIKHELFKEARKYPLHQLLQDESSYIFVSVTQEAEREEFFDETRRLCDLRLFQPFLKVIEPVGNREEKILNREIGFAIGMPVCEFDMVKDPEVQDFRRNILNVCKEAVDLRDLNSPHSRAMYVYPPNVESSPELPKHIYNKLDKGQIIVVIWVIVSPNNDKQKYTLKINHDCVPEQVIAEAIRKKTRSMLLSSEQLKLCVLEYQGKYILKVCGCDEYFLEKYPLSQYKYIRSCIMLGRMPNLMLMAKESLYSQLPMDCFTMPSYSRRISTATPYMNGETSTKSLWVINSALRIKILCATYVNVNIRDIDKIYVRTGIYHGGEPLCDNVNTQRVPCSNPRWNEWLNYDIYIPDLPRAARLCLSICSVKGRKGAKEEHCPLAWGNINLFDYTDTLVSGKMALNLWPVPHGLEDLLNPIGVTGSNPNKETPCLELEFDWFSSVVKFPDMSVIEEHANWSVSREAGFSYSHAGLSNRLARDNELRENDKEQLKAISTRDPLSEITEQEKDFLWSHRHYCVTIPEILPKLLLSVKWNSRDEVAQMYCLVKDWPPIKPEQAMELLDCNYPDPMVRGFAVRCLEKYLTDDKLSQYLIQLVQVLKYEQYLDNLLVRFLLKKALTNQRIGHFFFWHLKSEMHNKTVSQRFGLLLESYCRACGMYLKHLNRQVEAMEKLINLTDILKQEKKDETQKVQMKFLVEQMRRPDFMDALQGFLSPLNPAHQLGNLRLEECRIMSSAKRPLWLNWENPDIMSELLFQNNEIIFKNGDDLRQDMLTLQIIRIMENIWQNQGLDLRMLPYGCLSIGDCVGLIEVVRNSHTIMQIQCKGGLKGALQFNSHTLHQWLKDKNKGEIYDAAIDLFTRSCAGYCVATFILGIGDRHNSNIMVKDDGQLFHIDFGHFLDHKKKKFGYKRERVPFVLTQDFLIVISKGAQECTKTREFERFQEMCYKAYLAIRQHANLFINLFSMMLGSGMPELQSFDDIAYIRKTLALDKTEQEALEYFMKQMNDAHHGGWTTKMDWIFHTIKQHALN

[6] = biological target: T2, kinases (KINOMEscan panel) (Homo sapiens, UniProt Q8N752); conditions: CSNK1A1L; Published KINOMEscan; ref original PKIS2 published data; cited from earlier work
T2 sequence (Q8N752 1-337): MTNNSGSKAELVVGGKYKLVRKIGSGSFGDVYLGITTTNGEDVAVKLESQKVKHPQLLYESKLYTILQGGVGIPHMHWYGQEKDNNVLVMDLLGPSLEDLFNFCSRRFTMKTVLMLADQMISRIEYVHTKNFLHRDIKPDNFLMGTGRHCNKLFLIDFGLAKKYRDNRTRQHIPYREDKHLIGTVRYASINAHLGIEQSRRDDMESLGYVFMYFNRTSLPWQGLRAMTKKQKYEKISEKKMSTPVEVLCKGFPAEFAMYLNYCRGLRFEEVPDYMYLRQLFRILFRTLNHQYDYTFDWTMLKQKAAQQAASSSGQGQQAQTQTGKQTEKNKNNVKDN

[7] = biological target: kinases (KINOMEscan panel) (Homo sapiens, UniProt Q9Y463); conditions: kinase DYRK1B; Published KINOMEscan; ref original PKIS2 published data; cited from earlier work
Sequence of kinases (KINOMEscan panel) (Homo sapiens, UniProt Q9Y463) (Q9Y463 whole entry): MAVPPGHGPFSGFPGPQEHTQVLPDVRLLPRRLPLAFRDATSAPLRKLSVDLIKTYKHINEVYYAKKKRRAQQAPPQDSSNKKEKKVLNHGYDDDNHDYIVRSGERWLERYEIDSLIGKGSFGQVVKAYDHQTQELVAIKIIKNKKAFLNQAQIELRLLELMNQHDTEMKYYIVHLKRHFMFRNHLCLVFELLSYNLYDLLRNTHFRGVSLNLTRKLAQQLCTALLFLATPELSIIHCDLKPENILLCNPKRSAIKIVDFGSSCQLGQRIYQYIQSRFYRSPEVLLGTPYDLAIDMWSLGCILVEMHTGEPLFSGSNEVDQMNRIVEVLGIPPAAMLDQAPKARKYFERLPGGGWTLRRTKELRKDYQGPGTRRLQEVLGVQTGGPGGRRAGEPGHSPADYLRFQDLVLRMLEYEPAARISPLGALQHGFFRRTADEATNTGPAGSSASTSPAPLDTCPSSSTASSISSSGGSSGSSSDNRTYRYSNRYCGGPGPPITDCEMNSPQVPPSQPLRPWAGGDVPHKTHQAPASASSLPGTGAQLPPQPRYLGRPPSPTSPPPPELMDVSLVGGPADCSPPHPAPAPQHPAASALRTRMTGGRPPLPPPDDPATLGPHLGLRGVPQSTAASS

[8] = biological target: kinases (KINOMEscan panel) (Homo sapiens, UniProt P53355); conditions: kinase DAPK1; Published KINOMEscan; ref original PKIS2 published data; cited from earlier work
Sequence of kinases (KINOMEscan panel) (Homo sapiens, UniProt P53355) (P53355 whole entry): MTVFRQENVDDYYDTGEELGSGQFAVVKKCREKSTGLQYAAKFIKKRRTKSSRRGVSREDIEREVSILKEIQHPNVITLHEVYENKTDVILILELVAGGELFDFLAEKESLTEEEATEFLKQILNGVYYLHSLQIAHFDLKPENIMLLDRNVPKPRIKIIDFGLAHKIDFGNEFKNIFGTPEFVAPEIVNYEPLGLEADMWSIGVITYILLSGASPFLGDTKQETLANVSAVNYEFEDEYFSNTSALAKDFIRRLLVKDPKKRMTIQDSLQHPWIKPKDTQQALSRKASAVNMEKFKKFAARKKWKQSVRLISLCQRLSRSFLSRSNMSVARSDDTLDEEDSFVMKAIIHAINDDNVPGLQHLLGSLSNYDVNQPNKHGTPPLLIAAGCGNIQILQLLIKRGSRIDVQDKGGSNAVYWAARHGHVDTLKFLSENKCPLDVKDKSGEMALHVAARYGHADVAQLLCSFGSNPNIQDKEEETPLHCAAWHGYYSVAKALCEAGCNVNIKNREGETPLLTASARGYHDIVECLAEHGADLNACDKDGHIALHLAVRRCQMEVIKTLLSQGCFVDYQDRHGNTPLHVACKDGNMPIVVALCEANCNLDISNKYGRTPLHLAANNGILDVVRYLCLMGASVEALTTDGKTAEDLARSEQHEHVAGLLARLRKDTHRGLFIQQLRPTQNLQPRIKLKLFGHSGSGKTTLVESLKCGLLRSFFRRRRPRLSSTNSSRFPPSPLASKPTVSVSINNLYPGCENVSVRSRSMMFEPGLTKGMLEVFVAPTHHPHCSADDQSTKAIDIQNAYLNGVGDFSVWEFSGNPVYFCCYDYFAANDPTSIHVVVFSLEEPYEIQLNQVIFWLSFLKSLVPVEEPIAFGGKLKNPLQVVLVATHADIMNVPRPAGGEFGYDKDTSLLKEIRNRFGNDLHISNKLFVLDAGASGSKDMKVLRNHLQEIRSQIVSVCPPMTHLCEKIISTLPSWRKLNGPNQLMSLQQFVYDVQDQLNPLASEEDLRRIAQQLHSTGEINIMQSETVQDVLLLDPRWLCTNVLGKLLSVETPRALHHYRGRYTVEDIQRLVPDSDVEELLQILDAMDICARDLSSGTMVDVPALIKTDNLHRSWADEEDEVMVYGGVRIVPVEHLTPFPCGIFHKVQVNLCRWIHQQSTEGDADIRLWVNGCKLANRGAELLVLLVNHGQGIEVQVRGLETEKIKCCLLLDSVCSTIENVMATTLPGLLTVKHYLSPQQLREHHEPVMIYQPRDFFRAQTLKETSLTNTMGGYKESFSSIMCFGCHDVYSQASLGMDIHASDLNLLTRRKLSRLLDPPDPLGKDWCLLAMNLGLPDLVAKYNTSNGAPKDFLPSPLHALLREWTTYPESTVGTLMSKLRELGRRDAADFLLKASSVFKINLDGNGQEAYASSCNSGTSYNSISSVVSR

[9] = biological target: kinases (KINOMEscan panel) (Homo sapiens, UniProt P78362); conditions: SRPK2; Published KINOMEscan; ref original PKIS2 published data; cited from earlier work
[10] = biological target: kinases (KINOMEscan panel) (Homo sapiens, UniProt P11362); conditions: kinase FGFR1; Published KINOMEscan; ref original PKIS2 published data; cited from earlier work
Sequence of kinases (KINOMEscan panel) (Homo sapiens, UniProt P11362) (P11362 22-822): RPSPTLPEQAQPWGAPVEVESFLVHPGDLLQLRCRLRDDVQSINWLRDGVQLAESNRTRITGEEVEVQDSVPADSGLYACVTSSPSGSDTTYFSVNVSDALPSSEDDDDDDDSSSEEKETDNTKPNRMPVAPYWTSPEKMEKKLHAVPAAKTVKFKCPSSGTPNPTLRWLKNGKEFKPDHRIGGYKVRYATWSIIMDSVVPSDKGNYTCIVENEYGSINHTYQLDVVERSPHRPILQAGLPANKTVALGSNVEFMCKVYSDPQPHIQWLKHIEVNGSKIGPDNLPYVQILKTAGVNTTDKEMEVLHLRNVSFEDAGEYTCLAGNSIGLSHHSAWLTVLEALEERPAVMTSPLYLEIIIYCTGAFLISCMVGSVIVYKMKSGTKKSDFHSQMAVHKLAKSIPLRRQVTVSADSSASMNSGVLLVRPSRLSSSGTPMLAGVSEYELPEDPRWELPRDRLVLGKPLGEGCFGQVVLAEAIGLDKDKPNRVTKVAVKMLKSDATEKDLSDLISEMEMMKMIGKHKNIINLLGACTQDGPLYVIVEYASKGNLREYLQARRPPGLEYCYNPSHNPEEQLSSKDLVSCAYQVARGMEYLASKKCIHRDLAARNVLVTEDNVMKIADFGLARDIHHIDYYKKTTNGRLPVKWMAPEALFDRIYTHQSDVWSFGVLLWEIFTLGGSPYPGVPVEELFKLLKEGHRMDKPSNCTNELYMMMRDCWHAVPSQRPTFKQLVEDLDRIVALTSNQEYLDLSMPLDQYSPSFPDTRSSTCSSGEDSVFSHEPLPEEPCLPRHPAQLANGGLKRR

Sequence of kinases (KINOMEscan panel) (Homo sapiens, UniProt P21127) (P21127 whole entry): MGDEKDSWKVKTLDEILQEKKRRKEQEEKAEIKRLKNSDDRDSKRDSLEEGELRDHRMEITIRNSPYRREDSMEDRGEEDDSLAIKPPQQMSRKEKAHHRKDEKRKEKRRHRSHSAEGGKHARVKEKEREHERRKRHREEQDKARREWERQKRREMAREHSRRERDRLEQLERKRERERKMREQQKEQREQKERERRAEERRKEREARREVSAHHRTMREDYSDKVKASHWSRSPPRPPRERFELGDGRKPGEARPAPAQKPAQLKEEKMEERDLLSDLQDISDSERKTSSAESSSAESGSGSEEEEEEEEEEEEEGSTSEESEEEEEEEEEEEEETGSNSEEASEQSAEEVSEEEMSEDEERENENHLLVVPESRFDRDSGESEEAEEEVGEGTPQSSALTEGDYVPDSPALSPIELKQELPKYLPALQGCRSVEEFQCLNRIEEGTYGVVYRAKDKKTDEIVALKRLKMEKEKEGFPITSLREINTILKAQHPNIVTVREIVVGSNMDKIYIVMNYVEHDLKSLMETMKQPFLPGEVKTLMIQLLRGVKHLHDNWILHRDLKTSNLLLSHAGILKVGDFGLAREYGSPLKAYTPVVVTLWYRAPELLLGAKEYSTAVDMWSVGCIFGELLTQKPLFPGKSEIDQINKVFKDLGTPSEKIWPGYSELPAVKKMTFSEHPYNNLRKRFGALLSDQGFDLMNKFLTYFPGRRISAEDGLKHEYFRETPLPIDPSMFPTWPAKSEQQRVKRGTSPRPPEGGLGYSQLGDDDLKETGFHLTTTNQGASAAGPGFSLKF

Compound: Cc1cccc(-c2nc(Nc3ccncc3)c3ccccc3n2)n1 [NK215]
- KINOMEscan CDK11B [1]: 0
- KINOMEscan MAP3K3 [2]: 0
- KINOMEscan PAK5 [3]: 0
- KINOMEscan ERBB4 [4]: 0
- KINOMEscan PIK3CA [5]: 0
- KINOMEscan CSNK1A1L [6]: 10
- KINOMEscan DYRK1B [7]: 27
- KINOMEscan DAPK1 [8]: 0
- KINOMEscan SRPK2 [9]: 54
- KINOMEscan FGFR1 [10]: 5
